Laboratory results published in patent US9249129B2, “Morpholino substituted urea derivatives as mTOR inhibitors” (CELLZOME LIMITED, priority 2010, dated 2016).

Experiments:
Test in all cases: kinobeads assay with mass spectrometry detection of kinases (kinase selectivity profile)
Format in all cases: binding
[1] = biological target: T1, kinases (kinome) (Homo sapiens, UniProt Q9Y2K2); conditions: QSK (CAMK), IPI00657720
T1 construct: determined in kinobeads assays with mass spectrometry detection of kinases as described previously; endogenous in cells; host or cells: cell lysate
T1 sequence (Q9Y2K2 whole entry): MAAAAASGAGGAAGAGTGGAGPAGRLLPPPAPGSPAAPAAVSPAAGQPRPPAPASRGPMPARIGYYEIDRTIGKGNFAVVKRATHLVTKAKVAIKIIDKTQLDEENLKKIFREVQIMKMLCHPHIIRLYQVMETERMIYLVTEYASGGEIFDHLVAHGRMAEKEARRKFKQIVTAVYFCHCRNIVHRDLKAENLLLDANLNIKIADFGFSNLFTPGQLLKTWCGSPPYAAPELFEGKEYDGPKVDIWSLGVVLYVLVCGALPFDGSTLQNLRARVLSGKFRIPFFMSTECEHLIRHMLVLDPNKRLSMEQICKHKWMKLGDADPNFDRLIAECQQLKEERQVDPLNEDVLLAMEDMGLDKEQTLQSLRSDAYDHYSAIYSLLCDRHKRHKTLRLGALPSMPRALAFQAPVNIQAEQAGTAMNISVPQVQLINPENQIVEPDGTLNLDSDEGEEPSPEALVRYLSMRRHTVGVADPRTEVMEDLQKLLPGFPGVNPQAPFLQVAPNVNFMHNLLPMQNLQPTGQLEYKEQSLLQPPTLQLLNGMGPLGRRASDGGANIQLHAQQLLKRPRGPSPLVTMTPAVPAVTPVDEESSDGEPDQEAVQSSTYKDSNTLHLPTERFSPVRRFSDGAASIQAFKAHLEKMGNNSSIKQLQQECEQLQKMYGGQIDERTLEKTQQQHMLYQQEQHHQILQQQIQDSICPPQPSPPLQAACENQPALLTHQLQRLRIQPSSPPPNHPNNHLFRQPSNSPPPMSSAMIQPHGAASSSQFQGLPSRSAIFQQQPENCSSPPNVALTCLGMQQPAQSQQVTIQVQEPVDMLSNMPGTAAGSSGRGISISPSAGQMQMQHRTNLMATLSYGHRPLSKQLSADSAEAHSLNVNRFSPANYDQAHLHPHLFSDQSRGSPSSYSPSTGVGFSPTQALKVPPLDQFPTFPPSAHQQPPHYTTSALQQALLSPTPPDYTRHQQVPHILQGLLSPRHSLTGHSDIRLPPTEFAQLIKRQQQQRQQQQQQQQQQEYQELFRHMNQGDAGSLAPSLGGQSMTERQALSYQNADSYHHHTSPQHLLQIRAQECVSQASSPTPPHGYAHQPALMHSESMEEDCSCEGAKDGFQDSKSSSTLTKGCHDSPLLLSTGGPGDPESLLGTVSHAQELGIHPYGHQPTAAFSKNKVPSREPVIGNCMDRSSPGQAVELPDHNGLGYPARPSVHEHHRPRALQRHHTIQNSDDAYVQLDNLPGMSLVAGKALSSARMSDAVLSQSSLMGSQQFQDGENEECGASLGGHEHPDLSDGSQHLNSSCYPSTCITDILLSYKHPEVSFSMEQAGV
Source text: (§1) The protein kinase complement of the human genome (the kinome) was described previously (Manning et al., 2002. Science 298(5600):1912-1934). Sequence accession numbers are defined by the International Protein Index (IPI) (Kersey et al., 2004. Proteomics 4(7):1985-1988).

[2] = biological target: T2, kinases (kinome) (Homo sapiens, UniProt P36897); conditions: TGFbR1 (TKL), IPI00005733
T2 construct: determined in kinobeads assays with mass spectrometry detection of kinases as described previously; endogenous in cells; host or cells: cell lysate
T2 sequence (P36897 34-503): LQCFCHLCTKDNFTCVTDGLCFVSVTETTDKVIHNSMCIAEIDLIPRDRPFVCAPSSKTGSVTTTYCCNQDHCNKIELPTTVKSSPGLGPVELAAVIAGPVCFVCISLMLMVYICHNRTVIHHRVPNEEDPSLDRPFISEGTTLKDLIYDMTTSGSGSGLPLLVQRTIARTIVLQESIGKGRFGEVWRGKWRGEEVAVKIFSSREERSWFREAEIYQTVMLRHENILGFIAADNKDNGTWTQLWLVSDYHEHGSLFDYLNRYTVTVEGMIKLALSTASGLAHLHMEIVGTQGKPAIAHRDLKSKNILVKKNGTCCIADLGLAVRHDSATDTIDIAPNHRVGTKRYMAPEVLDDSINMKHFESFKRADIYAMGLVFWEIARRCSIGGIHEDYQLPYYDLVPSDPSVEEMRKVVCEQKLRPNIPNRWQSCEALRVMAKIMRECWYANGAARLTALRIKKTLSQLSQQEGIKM
Source text: as §1

[3] = biological target: T3, kinases (kinome) (Homo sapiens, UniProt O15530); conditions: PDK1 (AGC), IPI00002538
T3 construct: determined in kinobeads assays with mass spectrometry detection of kinases as described previously; endogenous in cells; host or cells: cell lysate
T3 sequence (O15530 1-556): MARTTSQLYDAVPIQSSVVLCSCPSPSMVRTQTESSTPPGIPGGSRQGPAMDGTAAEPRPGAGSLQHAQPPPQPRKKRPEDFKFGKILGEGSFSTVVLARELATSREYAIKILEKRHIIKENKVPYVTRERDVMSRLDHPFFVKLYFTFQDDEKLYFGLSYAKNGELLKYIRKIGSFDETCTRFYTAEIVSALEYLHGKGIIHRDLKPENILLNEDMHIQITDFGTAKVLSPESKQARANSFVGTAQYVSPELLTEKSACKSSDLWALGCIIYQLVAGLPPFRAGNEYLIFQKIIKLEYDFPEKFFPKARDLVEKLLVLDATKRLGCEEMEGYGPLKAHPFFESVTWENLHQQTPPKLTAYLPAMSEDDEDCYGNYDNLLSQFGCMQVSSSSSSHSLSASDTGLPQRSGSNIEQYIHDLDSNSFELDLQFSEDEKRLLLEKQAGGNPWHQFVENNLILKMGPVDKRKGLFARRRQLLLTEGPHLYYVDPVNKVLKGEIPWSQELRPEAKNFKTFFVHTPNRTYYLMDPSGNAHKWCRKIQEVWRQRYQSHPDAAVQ
Source text: as §1

[4] = biological target: T4, kinases (kinome) (Homo sapiens, UniProt P41240); conditions: CSK (TK), IPI00013212
T4 construct: determined in kinobeads assays with mass spectrometry detection of kinases as described previously; endogenous in cells; host or cells: cell lysate
Source text: as §1

[5] = biological target: T5, kinases (kinome) (Homo sapiens, UniProt P23458); conditions: JAK1 (TK), IPI00784013
T5 construct: determined in kinobeads assays with mass spectrometry detection of kinases as described previously; endogenous in cells; host or cells: cell lysate
T5 sequence (P23458 whole entry): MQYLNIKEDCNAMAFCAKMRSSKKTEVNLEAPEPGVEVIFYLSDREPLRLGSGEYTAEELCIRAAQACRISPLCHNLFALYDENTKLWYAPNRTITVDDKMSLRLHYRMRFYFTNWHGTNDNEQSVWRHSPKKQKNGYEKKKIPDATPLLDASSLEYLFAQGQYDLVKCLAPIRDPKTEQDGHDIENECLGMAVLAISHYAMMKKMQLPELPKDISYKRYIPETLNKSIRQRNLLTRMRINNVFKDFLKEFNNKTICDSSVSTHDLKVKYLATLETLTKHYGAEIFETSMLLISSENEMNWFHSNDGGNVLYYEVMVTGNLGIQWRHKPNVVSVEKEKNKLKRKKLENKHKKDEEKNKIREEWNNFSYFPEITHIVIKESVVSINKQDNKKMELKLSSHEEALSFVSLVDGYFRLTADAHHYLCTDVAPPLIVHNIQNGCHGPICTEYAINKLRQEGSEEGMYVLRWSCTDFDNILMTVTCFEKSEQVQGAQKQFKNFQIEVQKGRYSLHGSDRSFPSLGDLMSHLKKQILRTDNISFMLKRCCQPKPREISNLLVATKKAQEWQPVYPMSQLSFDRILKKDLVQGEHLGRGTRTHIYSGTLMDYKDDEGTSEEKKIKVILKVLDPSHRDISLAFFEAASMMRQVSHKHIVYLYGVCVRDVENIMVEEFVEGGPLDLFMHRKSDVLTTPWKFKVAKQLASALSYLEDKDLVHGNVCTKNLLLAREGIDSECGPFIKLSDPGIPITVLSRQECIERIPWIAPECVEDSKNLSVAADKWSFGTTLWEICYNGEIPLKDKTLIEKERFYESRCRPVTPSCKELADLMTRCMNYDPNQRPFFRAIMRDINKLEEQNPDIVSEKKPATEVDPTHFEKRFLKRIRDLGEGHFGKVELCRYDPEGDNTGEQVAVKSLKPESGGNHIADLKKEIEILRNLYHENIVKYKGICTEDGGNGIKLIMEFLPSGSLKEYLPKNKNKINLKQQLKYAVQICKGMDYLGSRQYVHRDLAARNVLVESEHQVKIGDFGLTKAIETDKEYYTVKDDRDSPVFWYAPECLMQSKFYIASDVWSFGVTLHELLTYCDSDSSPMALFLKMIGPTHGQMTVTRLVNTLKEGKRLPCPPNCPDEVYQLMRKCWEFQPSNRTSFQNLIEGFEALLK
Source text: as §1

[6] = biological target: T6, kinases (kinome) (Homo sapiens, UniProt P07947); conditions: YES (TK), IPI00013981
T6 construct: determined in kinobeads assays with mass spectrometry detection of kinases as described previously; endogenous in cells; host or cells: cell lysate
Source text: as §1

[7] = biological target: T7, kinases (kinome) (Homo sapiens, UniProt Q9UBF8); conditions: PIK4Cb (Lipid Kinase), IPI00641770
T7 construct: determined in kinobeads assays with mass spectrometry detection of kinases as described previously; endogenous in cells; host or cells: cell lysate
T7 sequence (Q9UBF8 whole entry): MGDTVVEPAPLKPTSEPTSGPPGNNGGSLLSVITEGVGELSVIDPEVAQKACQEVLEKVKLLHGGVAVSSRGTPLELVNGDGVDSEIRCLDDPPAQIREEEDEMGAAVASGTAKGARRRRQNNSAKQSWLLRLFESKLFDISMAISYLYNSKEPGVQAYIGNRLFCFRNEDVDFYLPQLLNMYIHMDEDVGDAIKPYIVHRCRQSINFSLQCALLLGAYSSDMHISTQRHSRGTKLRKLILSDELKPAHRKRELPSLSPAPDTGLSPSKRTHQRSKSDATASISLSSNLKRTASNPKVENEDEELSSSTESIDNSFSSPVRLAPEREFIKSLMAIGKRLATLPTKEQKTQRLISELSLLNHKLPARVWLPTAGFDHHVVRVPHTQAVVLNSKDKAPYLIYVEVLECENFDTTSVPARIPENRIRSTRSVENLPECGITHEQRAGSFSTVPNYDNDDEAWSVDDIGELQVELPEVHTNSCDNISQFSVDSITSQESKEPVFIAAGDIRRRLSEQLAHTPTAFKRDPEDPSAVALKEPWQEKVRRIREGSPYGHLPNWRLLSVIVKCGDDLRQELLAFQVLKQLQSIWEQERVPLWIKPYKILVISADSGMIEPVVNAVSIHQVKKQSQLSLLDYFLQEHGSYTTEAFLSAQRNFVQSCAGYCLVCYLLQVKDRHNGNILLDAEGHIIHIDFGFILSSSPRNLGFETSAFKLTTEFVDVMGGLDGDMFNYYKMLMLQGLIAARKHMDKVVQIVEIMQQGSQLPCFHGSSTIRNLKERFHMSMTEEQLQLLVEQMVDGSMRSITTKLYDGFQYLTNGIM
Source text: as §1

[8] = biological target: T8, kinases (kinome) (Homo sapiens, UniProt Q04759); conditions: PKCt (AGC), IPI00029196
T8 construct: determined in kinobeads assays with mass spectrometry detection of kinases as described previously; endogenous in cells; host or cells: cell lysate
Source text: as §1

[9] = biological target: T9, kinases (kinome) (Homo sapiens, UniProt Q8IU85); conditions: CaMK1d (CAMK), IPI00170508
T9 construct: determined in kinobeads assays with mass spectrometry detection of kinases as described previously; endogenous in cells; host or cells: cell lysate
T9 sequence (Q8IU85 whole entry): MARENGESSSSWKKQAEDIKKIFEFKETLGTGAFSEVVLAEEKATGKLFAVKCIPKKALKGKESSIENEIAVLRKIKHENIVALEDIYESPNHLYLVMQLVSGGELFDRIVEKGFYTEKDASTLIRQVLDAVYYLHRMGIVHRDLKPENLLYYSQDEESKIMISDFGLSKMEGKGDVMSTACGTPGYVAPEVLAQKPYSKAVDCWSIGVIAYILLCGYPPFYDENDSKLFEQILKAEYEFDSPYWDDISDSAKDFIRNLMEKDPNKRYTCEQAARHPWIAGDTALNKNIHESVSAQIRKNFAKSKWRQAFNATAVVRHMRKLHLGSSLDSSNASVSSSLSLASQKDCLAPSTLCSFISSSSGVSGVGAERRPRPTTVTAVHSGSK
Source text: as §1

[10] = biological target: T10, kinases (kinome) (Homo sapiens, UniProt Q2M2I8); conditions: AAK1 (Other), IPI00916402
T10 construct: determined in kinobeads assays with mass spectrometry detection of kinases as described previously; endogenous in cells; host or cells: cell lysate
T10 sequence (Q2M2I8 whole entry): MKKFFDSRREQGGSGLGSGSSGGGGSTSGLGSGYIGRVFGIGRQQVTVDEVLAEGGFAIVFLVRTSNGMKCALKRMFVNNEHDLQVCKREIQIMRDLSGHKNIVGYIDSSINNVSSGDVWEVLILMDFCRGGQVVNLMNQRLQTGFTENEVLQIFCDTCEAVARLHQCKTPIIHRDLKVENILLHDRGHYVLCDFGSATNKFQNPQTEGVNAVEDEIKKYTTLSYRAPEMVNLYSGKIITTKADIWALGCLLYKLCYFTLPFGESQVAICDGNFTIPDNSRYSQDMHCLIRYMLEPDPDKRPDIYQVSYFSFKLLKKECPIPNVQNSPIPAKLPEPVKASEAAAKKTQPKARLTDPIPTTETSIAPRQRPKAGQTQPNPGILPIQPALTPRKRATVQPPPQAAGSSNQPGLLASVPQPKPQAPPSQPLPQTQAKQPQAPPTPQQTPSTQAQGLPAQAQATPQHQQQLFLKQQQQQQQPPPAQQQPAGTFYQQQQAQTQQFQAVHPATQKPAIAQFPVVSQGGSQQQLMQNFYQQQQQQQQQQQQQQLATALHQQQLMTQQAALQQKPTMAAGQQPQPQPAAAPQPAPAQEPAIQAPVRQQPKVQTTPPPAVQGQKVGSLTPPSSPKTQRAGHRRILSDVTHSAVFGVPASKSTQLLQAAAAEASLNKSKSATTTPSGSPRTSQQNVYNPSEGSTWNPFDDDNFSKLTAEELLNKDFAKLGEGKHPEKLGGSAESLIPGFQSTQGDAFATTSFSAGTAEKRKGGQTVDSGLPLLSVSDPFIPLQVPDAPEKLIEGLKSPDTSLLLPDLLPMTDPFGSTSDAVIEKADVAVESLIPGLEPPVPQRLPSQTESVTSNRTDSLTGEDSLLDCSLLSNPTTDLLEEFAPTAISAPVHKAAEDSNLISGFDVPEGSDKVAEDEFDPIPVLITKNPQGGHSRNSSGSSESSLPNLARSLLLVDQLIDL
Source text: as §1

[11] = biological target: T11, kinases (kinome) (Homo sapiens, UniProt Q96RR4); conditions: CaMKK2 (Other), IPI00290239
T11 construct: determined in kinobeads assays with mass spectrometry detection of kinases as described previously; endogenous in cells; host or cells: cell lysate
Source text: as §1

SMILES | IC50 [1] | IC50 [2] | IC50 [3] | IC50 [4] | IC50 [5] | IC50 [6] | IC50 [7] | IC50 [8] | IC50 [9] | IC50 [10] | IC50 [11]
C[C@H]1COCCN1c1nc(-c2ccc(NC(=O)NC3CC3)cc2)cc(-c2cc(F)ccc2S(C)(=O)=O)n1 [Example 40, (S)-1-cyclopropyl-3-(4-(6-(5-fluoro-2-(methylsulfonyl)phenyl)-2-(3-methylmorpholino)pyrimidin-4-yl)phenyl)urea] | > 10 µM | > 10 µM | > 10 µM | > 10 µM | > 10 µM | > 10 µM | > 10 µM | > 10 µM | > 10 µM | > 10 µM | > 10 µM
C[C@H]1COCCN1c1nc(-c2ccc(NC(=O)NC3CC3)cc2)cc(-c2cccnc2S(C)(=O)=O)n1 [Example 46, (S)-1-cyclopropyl-3-(4-(2-(3-methylmorpholino)-6-(2-(methylsulfonyl)pyridin-3-yl)pyrimidin-4-yl)phenyl)urea] | > 10 µM | > 10 µM | > 10 µM | > 10 µM | > 10 µM | > 10 µM | > 10 µM | > 10 µM | > 10 µM | > 10 µM | > 10 µM
C[C@H]1COCCN1c1nc(-c2ccc(NC(=O)N[C@H]3CCC[C@@H]3O)cc2)cc(-c2cc(F)ccc2S(C)(=O)=O)n1 [Example 76, 1-(4-(6-(5-fluoro-2-(methylsulfonyl)phenyl)-2-((S)-3-methylmorpholino)pyrimidin-4-yl)phenyl)-3-((1S,2S)-2-hydroxycyclopentyl)urea] | > 10 µM | > 10 µM | > 10 µM | > 10 µM | > 10 µM | > 10 µM | > 10 µM | > 10 µM | > 10 µM | > 10 µM | > 10 µM

Results, then the compound that gave them:

IC50 [1] | IC50 [2] | IC50 [3] | IC50 [4] | IC50 [5] | IC50 [6] | IC50 [7] | IC50 [8] | IC50 [9] | IC50 [10] | IC50 [11] | SMILES
> 10 µM | > 10 µM | > 10 µM | > 10 µM | > 10 µM | > 10 µM | > 10 µM | > 10 µM | > 10 µM | > 10 µM | > 10 µM | C[C@H]1COCCN1c1cc(-c2ccccc2S(C)(=O)=O)nc(-c2ccc(NC(=O)NC3CC3)cc2)n1 [Example 6, (S)-1-cyclopropyl-3-(4-(4-(3-methylmorpholino)-6-(2-(methylsulfonyl)phenyl)pyrimidin-2-yl)phenyl)urea]
> 10 µM | > 10 µM | > 10 µM | > 10 µM | > 10 µM | > 10 µM | > 10 µM | > 10 µM | > 10 µM | > 10 µM | > 10 µM | CCNC(=O)Nc1ccc(-c2cc(-c3ccccc3C#N)nc(N3CCOC[C@@H]3C)n2)cc1 [Example 8, (S)-1-(4-(6-(2-cyanophenyl)-2-(3-methylmorpholino)pyrimidin-4-yl)phenyl)-3-ethylurea]
> 10 µM | > 10 µM | > 10 µM | > 10 µM | > 10 µM | > 10 µM | > 10 µM | > 10 µM | > 10 µM | > 10 µM | > 10 µM | C[C@H]1COCCN1c1cc(-c2ccccn2)nc(-c2ccc(NC(=O)NCCO)cc2)n1 [Example 43, (S)-1-(2-hydroxyethyl)-3-(4-(4-(3-methylmorpholino)-6-(pyridin-2-yl)pyrimidin-2-yl)phenyl)urea]
> 10 µM | > 10 µM | > 10 µM | > 10 µM | > 10 µM | > 10 µM | > 10 µM | > 10 µM | > 10 µM | > 10 µM | > 10 µM | C[C@H]1COCCN1c1nc(-c2ccc(NC(=O)NC3CC3)cc2)cc(-c2ccccc2S(C)(=O)=O)n1 [Example 4, (S)-1-cyclopropyl-3-(4-(2-(3-methylmorpholino)-6-(2-(methylsulfonyl)phenyl)pyrimidin-4-yl)phenyl)urea]
